Reference: PubChem BioAssay (NCI)
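Step 1: Grow cells in 96-well plates. Step 2: Expose to compound for 48 hours at 5 concentrations. Step 3: Interpolate endpoints linearly; if unreached, use highest concentration. TGI denotes the concentration required for complete inhibition of growth.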

Legend:
Experiment in all cases: inhibition of tumour cell growth, NCI panel, 48 h
LXFL 529 NSCLC = tested on: LXFL 529 NSCLC
HOP-18 NSCLC = tested on: HOP-18 NSCLC
HOP-92 NSCLC = tested on: HOP-92 NSCLC
ACHN renal = tested on: ACHN renal
RXF-631 renal = tested on: RXF-631 renal
SF-539 CNS = tested on: SF-539 CNS
NCI-H23 lung = tested on: NCI-H23 lung
NCI-H460 lung = tested on: NCI-H460 lung
OVCAR-5 ovarian = tested on: OVCAR-5 ovarian
SK-MEL-2 melanoma = tested on: SK-MEL-2 melanoma
SNB-19 CNS = tested on: SNB-19 CNS
KM20L2 colon = tested on: KM20L2 colon
HCT-116 colon = tested on: HCT-116 colon
NCI-H522 lung = tested on: NCI-H522 lung
OVCAR-8 ovarian = tested on: OVCAR-8 ovarian
TK-10 renal = tested on: TK-10 renal
EKVX NSCLC = tested on: EKVX NSCLC
SF-295 CNS = tested on: SF-295 CNS
U251 CNS = tested on: U251 CNS
OVCAR-4 ovarian = tested on: OVCAR-4 ovarian
DMS 114 small cell lung = tested on: DMS 114 small cell lung
HL-60(TB) leukemia = tested on: HL-60(TB) leukemia
KM12 colon = tested on: KM12 colon
SF-268 CNS = tested on: SF-268 CNS
K-562 leukemia = tested on: K-562 leukemia
SK-OV-3 ovarian = tested on: SK-OV-3 ovarian
A549 NSCLC = tested on: A549 NSCLC
UACC-257 melanoma = tested on: UACC-257 melanoma
COLO 205 colon = tested on: COLO 205 colon
MOLT-4 leukemia = tested on: MOLT-4 leukemia
SN12C renal = tested on: SN12C renal
SNB-78 CNS = tested on: SNB-78 CNS
SW-620 colon = tested on: SW-620 colon
IGROV1 ovarian = tested on: IGROV1 ovarian
MALME-3M melanoma = tested on: MALME-3M melanoma
RXF 393 renal = tested on: RXF 393 renal
A498 renal = tested on: A498 renal
M14 melanoma = tested on: M14 melanoma
RPMI-8226 leukemia = tested on: RPMI-8226 leukemia
SK-MEL-28 melanoma = tested on: SK-MEL-28 melanoma
HOP-62 NSCLC = tested on: HOP-62 NSCLC
DLD-1 colon = tested on: DLD-1 colon
DMS 273 small cell lung = tested on: DMS 273 small cell lung
UACC-62 melanoma = tested on: UACC-62 melanoma
786-0 renal = tested on: 786-0 renal
OVCAR-3 ovarian = tested on: OVCAR-3 ovarian
CCRF-CEM leukemia = tested on: CCRF-CEM leukemia
SNB-75 CNS = tested on: SNB-75 CNS
LOX IMVI melanoma = tested on: LOX IMVI melanoma
M19-MEL melanoma = tested on: M19-MEL melanoma
HCC-2998 colon = tested on: HCC-2998 colon
HCT-15 colon = tested on: HCT-15 colon
UO-31 renal = tested on: UO-31 renal

Compound C[N+]1(C)C/C(=C/c2ccc(F)cc2)C(=O)/C(=C\c2ccc(F)cc2)C1 has a TGI (LXFL 529 NSCLC) of over 100 µM, a TGI (HOP-18 NSCLC) of over 100 µM and a TGI (HOP-92 NSCLC) of over 100 µM. The TGI (ACHN renal) was over 100 µM, the TGI (RXF-631 renal) was over 100 µM and the TGI (SF-539 CNS) was over 100 µM. It also gave a TGI (NCI-H23 lung) of over 100 µM, a TGI (NCI-H460 lung) of over 100 µM and a TGI (OVCAR-5 ovarian) of over 100 µM. The TGI (SK-MEL-2 melanoma) was over 100 µM, the TGI (SNB-19 CNS) was over 100 µM and the TGI (KM20L2 colon) was over 100 µM. For the same compound, the TGI (HCT-116 colon) was over 100 µM, the TGI (NCI-H522 lung) was 36.9 µM and the TGI (OVCAR-8 ovarian) was over 100 µM. The TGI (TK-10 renal) was over 100 µM, the TGI (EKVX NSCLC) was over 100 µM and the TGI (SF-295 CNS) was over 100 µM. It also gave a TGI (U251 CNS) of 42.7 µM, a TGI (OVCAR-4 ovarian) of over 100 µM and a TGI (DMS 114 small cell lung) of over 100 µM. It also gave a TGI (HL-60(TB) leukemia) of 50.3 µM, a TGI (KM12 colon) of over 100 µM and a TGI (SF-268 CNS) of over 100 µM. For the same compound, the TGI (K-562 leukemia) was over 100 µM, the TGI (SK-OV-3 ovarian) was over 100 µM and the TGI (A549 NSCLC) was over 100 µM. It also gave a TGI (UACC-257 melanoma) of over 100 µM, a TGI (COLO 205 colon) of over 100 µM and a TGI (MOLT-4 leukemia) of 45.5 µM. For the same compound, the TGI (SN12C renal) was 11.9 µM, the TGI (SNB-78 CNS) was over 100 µM and the TGI (SW-620 colon) was over 100 µM. The TGI (IGROV1 ovarian) was 70.1 µM, the TGI (MALME-3M melanoma) was over 100 µM and the TGI (RXF 393 renal) was over 100 µM. For the same compound, the TGI (A498 renal) was over 100 µM, the TGI (M14 melanoma) was over 100 µM and the TGI (RPMI-8226 leukemia) was 57.8 µM. It also gave a TGI (SK-MEL-28 melanoma) of 40.8 µM, a TGI (HOP-62 NSCLC) of over 100 µM and a TGI (DLD-1 colon) of over 100 µM. The TGI (DMS 273 small cell lung) was 86.2 µM, the TGI (UACC-62 melanoma) was 33.5 µM and the TGI (786-0 renal) was over 100 µM. It also gave a TGI (OVCAR-3 ovarian) of over 100 µM, a TGI (CCRF-CEM leukemia) of 68.5 µM and a TGI (SNB-75 CNS) of over 100 µM. It also gave a TGI (LOX IMVI melanoma) of over 100 µM, a TGI (M19-MEL melanoma) of over 100 µM and a TGI (HCC-2998 colon) of over 100 µM. For the same compound, the TGI (HCT-15 colon) was over 100 µM and the TGI (UO-31 renal) was over 100 µM.
